This note sets out measurements from patent publication US20230338370A1, “Treatment of Cancer with TOR Kinase Inhibitors” (Signal Pharmaceuticals, LLC, priority 2012, published 2023).

Holding throughout (assay): Growth inhibition assay for Breast Cancer (BC) Cell lines
Holding throughout (type): cell-based

Test [1] concerns HCC2157. To be noted: Homo sapiens; HCC2157, TN; 96 hours, Cell Titer-Glo. As for the experimental part: (§1) Growth inhibition assay for Breast Cancer (BC) Cell lines. Compounds 1 (a TOR kinase inhibitor set forth herein having molecular formula C16H16N8O) and 2 (a TOR kinase inhibitor set forth herein having molecular formula C17H18N8O2) were dissolved in dimethyl sulfoxide (DMSO) to prepare a 10 mM stock solution. A serial titration was performed to produce a working concentration range of 1.5 µM to 10 mM. Aliquots to produce final concentrations of 1.5 nM to 10 µM were spotted via an acoustic dispenser (EDC ATS-100) into an empty 384-well plate. Compounds 1 and 2 were spotted in a 10-point serial dilution fashion (3-fold dilution) in duplicate within the plate. The DMSO concentration was kept constant for a final assay concentration of 0.1% DMSO. Plates were replicated for use with different cell lines and testing periods. After compound plate replication, all plates were sealed (Agilent ThermoLoc) and stored at -20° C. for up to 1 month. […] When ready for testing, plates were removed from the freezer, thawed, and unsealed just prior to the addition of the test cells. Prior to testing, cells were grown and expanded in culture flasks to provide sufficient amounts of starting material. Cells were then diluted to the appropriate densities and added directly to the compound-spotted 384-well plates. Cells were allowed to grow for 96 hours at 37° C./5% CO2. At the time when compound was added (t0), initial cell number was assessed via a viability assay (Cell Titer-Glo) by quantifying the level of luminescence generated by ATP present in viable cells. After 96 hours, cell viability of compound-treated cells was assessed via Cell Titer-Glo and luminescence measurement. Cell lines were assayed for growth inhibition by Compounds 1 and 2 in at least 3 independent tests. A control cell line (the lung tumor cell line, A549) was included in each of the assays. The compound response against this control cell line was monitored closely to enable comparison of the data generated through the assay period. All data were normalized and presented as a percentage of the DMSO-treated cells. Results were then expressed as a GI50 value. The GI50 value corrects for the cell count at time zero.
A general note: Cellular ATP, detected with luciferase, serves as a proxy for viable cell number.

In test [2] the test system is CAL-51. The settings on record: Homo sapiens; CAL-51, TN; 96 hours, Cell Titer-Glo. As for the experimental part:
as §1

Test [3] has as its system DU4475. To be noted: Homo sapiens, DU-4475; DU4475, TN; 96 hours, Cell Titer-Glo. As for the experimental part: as §1
In test [4] the test system is MT-3. To be noted: MT-3, TN; 96 hours, Cell Titer-Glo. On the procedure: as §1
Test [5] relates to HCC1187. To be noted: Homo sapiens; HCC1187, TN; 96 hours, Cell Titer-Glo. As for the experimental part:
as §1

Test [6] has as its system BT-549. To be noted: Homo sapiens; BT-549, TN; 96 hours, Cell Titer-Glo. On the procedure: as §1
For test [7], the system named is HS578T. To be noted: Homo sapiens, Hs-578T, TN, 96 hours, Cell Titer-Glo. As for the experimental part: as §1
Test [8] concerns MDA-MB-436. To be noted: Homo sapiens; MDA-MB-436, TN; 96 hours, Cell Titer-Glo. As for the experimental part:
as §1

For test [9], the system named is CAL-85-1. To be noted: Homo sapiens; CAL-85-1, TN; 96 hours, Cell Titer-Glo. On the procedure: as §1
Test [10] concerns CAL-148. To be noted: Homo sapiens; CAL-148, TN; 96 hours, Cell Titer-Glo. On the procedure: as §1
The test system of test [11] is MDA-MB-468. The settings on record: Homo sapiens; MDA-MB-468, TN; 96 hours, Cell Titer-Glo. As for the experimental part:
as §1

The test system of test [12] is MDA-MB-157. To be noted: Homo sapiens; MDA-MB-157, TN; 96 hours, Cell Titer-Glo. On the procedure:
as §1

The subject of test [13] is BT-20. To be noted: Homo sapiens; BT-20, TN; 96 hours, Cell Titer-Glo. On the procedure: as §1
For test [14], the system named is HDQ-P1. The settings on record: Homo sapiens; HDQ-P1, TN; 96 hours, Cell Titer-Glo. On the procedure: as §1
In test [15] the test system is HCC1143. The settings on record: Homo sapiens; HCC1143, TN; 96 hours, Cell Titer-Glo. As for the experimental part: as §1
For test [16], the system named is HCC1806. The settings on record: Homo sapiens; HCC1806, TN; 96 hours, Cell Titer-Glo. On the procedure:
as §1

Test [17] relates to CAL-120. The settings on record: Homo sapiens; CAL-120, TN; 96 hours, Cell Titer-Glo. On the procedure: as §1
The test system of test [18] is MDA-MB-231. The settings on record: Homo sapiens; MDA-MB-231, TN; 96 hours, Cell Titer-Glo. As for the experimental part:
as §1

The test system of test [19] is MB157. The settings on record: MB157, TN; 96 hours, Cell Titer-Glo. As for the experimental part: as §1
Test [20] deals with HCC70. To be noted: Homo sapiens; HCC70, TN; 96 hours, Cell Titer-Glo. On the procedure: as §1
The subject of test [21] is HCC1937. The settings on record: Homo sapiens; HCC1937, TN; 96 hours, Cell Titer-Glo. On the procedure:
as §1

The subject of test [22] is HCC38. To be noted: Homo sapiens; HCC38, TN; 96 hours, Cell Titer-Glo. As for the experimental part: as §1

As a reminder, the GI50 is the concentration that inhibits growth by half. Low readings indicate greater sensitivity of the cells, high ones lower sensitivity of the cells. Turning to `CCN1C(=O)CNc2ncc(-c3ccc(-c4nc[nH]n4)nc3C)nc21` [Compound 1, 1-ethyl-7-(2-methyl-6-(1H-1,2,4-triazol-3-yl)pyridin-3-yl)-3,4-dihydropyrazino[2,3-b]pyrazin-2(1H)-one], the GI50 in test [1] was determined as 51.5 nM; in test [2], 71 nM; in test [3], 237 nM; in test [4], 150 nM; in test [5], 195 nM; in [6] it was 146 nM. Further, the 50% growth inhibitory concentration (GI50) in [7] is 286 nM; in test [8], 279 nM; in test [9], 88.8 nM; in test [10] it was 187 nM; in test [11], 87.2 nM; in [12], 472 nM. Also, the GI50 in test [13] was found to be 116 nM; in [14], 162 nM; in test [15], 400 nM; in test [16] it was 187 nM; in test [17], 182 nM; in [18], 185 nM. For the same molecule, the concentration for 50% growth inhibition (GI50) is 346 nM in [19], 94.2 nM in test [20], 161 nM in test [21] and 430 nM in test [22].
